Measurements taken from paper PMC11183015, “In vivo stable ^211At-labeled prostate-specific membrane antigen-targeted tracer using a neopentyl glycol structure” (EJNMMI Radiopharmacy and Chemistry, 2024).

Assay: Lipophilicity (log D7.4), 1-octanol/PBS pH 7.4
Format: physicochemical
Description: [^125I]I-NpG-D-PSMA (3.7 kBq) was mixed with equal amounts (3.0 mL) of 1-octanol and PBS buffer (pH 7.4). The mixture was vortexed for 1 min and allowed to stand for 1 min. After repeating the procedure five times, the mixture was centrifuged at 1,500 g (3740, Kubota, Tokyo) for 10 min. Samples (0.2-2 mL) were taken from each phase and their radioactivity was measured with an auto-well γ-counter. The partition coefficient was determined by calculating the ratio of the counts per minute in the 1-octanol phase to that in the buffer phase and expressed as common logarithm. The results represent the mean of three measurements.

In the case of `O=C(O)CCC(NC(=O)NC(CCCCNC(=O)C(Cc1ccc2ccccc2c1)NC(=O)C(CCC(=O)O)NC(=O)C(CCC(=O)O)NC(=O)COCC(CO)(CO)C[125I])C(=O)O)C(=O)O` [[^125I]I-NpG-D-PSMA], the logD is reported as -3.14 ± 0.03.
